The record followed here is ChEMBL document CHEMBL1201862, “PubChem BioAssay data set” (2004).

Where “and” joins values, the source holds several entries; their conditions need not be identical. Equal values may be shown once.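 In this assay, cells in 96-well plates receive the compound at five concentrations for 48 hours. Endpoints are linearly interpolated between the surrounding concentrations. GI50 is the concentration that inhibits growth by half.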 Calls of active or inactive are those of the source. Cut-off read from the data, not from the text of the source: active = GI50 up to about 1.1 µM and inactive = higher.

Test systems include Hs-578T; UACC-257; NCI-H226; DU-145; COLO 205; HCT-116; PC-3; U-251; MDA-MB-231; SNB-19; NCI-H23; MDA-MB-435; NCI-H522; T47D; Malme-3M; ACHN; BT-549; HCT-15; SR; K562.
Holding throughout (assay): NCI tumour cell line growth inhibition, 48 h

Consider `CCN(CC)/N=N/c1c(C(N)=O)n[nH]c1C`, for which the GI50 in the assay on Hs-578T is 45.9 µM (inactive); in the assay on UACC-257, > 100 µM (inactive); in the assay with NCI-H226, 48.9 µM (inactive); with DU-145, 69.5 µM (inactive); in the assay on COLO 205 it was 52.5 µM (inactive); in the assay on HCT-116, > 100 µM (inactive). Besides, the GI50 is > 100 µM (inactive) in the assay on PC-3; 59 µM (inactive) with U-251; > 100 µM (inactive) in the assay on MDA-MB-231; 77.1 µM (inactive) in the assay on SNB-19; 36.9 µM (inactive) in the assay on NCI-H23; 77.4 µM (inactive) with MDA-MB-435. Further, the GI50 in the assay on NCI-H522 is 65.2 µM (inactive); in the assay on T47D, 60.3 µM (inactive); in the assay on Malme-3M, 64.3 µM (inactive); in the assay on ACHN, 32.8 µM (inactive); with BT-549, 11.1 µM (inactive); in the assay on HCT-15 it was 63.7 µM.

As to `O=C1CCCC2=C1CC1=C(CCCC1=O)N2c1ccccc1`, the GI50 in the assay on Hs-578T, in the assay on NCI-H226, in the assay on SR, in the assay with PC-3, in the assay on U-251 and with K562 was > 100 µM (inactive) each time. The GI50 in the assay on SNB-19 is > 100 µM (inactive); in the assay with NCI-H23 it was > 100 µM (inactive); in the assay with ACHN, > 100 µM (inactive); in the assay on BT-549, > 100 µM (inactive); with HCT-15, greater than 100 µM.

In the case of `Cc1ccc(-n2cc(-c3ccc(Cl)cc3)c3c2N=CN2N=C(c4ccco4)NC32)cc1` (stereo not drawn), the GI50 in the assay with Hs-578T is 2.05 µM (inactive); in the assay on UACC-257, > 100 µM (inactive); in the assay with NCI-H226, 11.2 µM (inactive); in the assay with SR it was 0.78 µM (active); in the assay on DU-145, > 100 µM (inactive); in the assay with COLO 205, 9.18 µM (inactive). The GI50 with HCT-116 was 7.05 µM (inactive); in the assay with PC-3 it was 12.8 µM (inactive); with U-251, 5.46 µM (inactive); in the assay with K562, 7.41 µM (inactive); in the assay with MDA-MB-231, 5 µM (inactive); with SNB-19, 14.3 µM (inactive). Besides, the GI50 in the assay with NCI-H23 is 19.7 µM (inactive); in the assay with MDA-MB-435, 30.8 µM (inactive); with NCI-H522, 15.8 µM (inactive); in the assay with Malme-3M it was 31.3 µM (inactive); with ACHN, 4.24 µM (inactive); with BT-549 it was 26.2 µM (inactive). For the same compound, the GI50 with HCT-15 was greater than 100 µM.

On to `C=CCN(Cc1ccncc1)C(=O)C(O)(c1ccccc1)c1ccccc1`, for which the GI50 in the assay with UACC-257 was 79.3 µM (inactive); with NCI-H226, > 100 µM (inactive); with SR it was 32.7 µM (inactive); with DU-145 it was > 100 µM (inactive); with COLO 205, 45.8 µM (inactive); with HCT-116, 48.2 µM (inactive). Besides, the GI50 in the assay on PC-3 is 37.2 µM (inactive); with U-251, 76.2 µM (inactive); in the assay with K562, 45.2 µM (inactive); with MDA-MB-231, > 100 µM (inactive); in the assay on SNB-19, 95.7 µM (inactive); with NCI-H23, 54.3 µM (inactive). Also, the GI50 was 17.3 µM (inactive) in the assay on MDA-MB-435; 34.3 µM (inactive) in the assay on NCI-H522; 39.9 µM (inactive) in the assay on T47D; 51.9 µM (inactive) with Malme-3M; > 100 µM (inactive) with ACHN; 11.8 µM (inactive) in the assay on BT-549. In the assay on HCT-15, this compound showed a GI50 of 65.9 µM.

Take `CSc1nc(C)cc(Nc2ccc(O)c(CN3CCCCC3)c2)n1`: the GI50 in the assay on Hs-578T is > 100 µM (inactive); with NCI-H226 it was 32.4 µM (inactive); with SR, 32.1 µM (inactive); with DU-145, 64.3 µM (inactive); in the assay on COLO 205, 29 µM (inactive); with HCT-116, 27.8 µM (inactive). The GI50 with K562 is 30.6 µM (inactive); with SNB-19, > 100 µM (inactive); in the assay with NCI-H23 it was 77.4 µM (inactive); in the assay on MDA-MB-435 it was 57.5 µM (inactive); in the assay on NCI-H522, 72.1 µM (inactive); with T47D it was 68.1 µM (inactive). Further, the GI50 with Malme-3M was 48.6 µM (inactive); in the assay with ACHN, 83 µM (inactive); in the assay with BT-549, > 100 µM (inactive); in the assay on HCT-15, 86.3 µM.

On to `COc1cc2c(cc1OC)C1Cc3cc(OC)c(OC)cc3C(C2)N1C`, for which the GI50 was > 75 µM (inactive) with Hs-578T; > 100 µM (inactive) with UACC-257; > 75 µM (inactive) with NCI-H226; > 75 µM (inactive) in the assay with DU-145; > 75 µM (inactive) with COLO 205; 26.9 µM (inactive) in the assay with HCT-116. Further, the GI50 was > 75 µM (inactive) in the assay with PC-3; > 100 µM (inactive) in the assay on U-251; > 100 µM (inactive) in the assay with K562; 0.0297 µM (active) in the assay with MDA-MB-231; > 100 µM (inactive) with SNB-19; > 100 µM (inactive) and 54.7 µM (inactive) with NCI-H23. Moreover, the GI50 in the assay with MDA-MB-435 was > 75 µM (inactive); in the assay with NCI-H522, > 100 µM (inactive); in the assay on T47D it was > 75 µM (inactive); with Malme-3M, > 75 µM (inactive); in the assay on ACHN it was > 100 µM (inactive); with BT-549 it was > 75 µM (inactive). This compound displayed a GI50 with HCT-15 greater than 100 µM.

Consider `Nc1nc(N)c2nc(CNc3ccc(C(=O)NC(CCNC(=O)c4ccccc4C(=O)O)C(=O)O)cc3)cnc2n1` (stereo not drawn), for which the GI50 is > 100 µM (inactive) in the assay on Hs-578T; > 100 µM (inactive) in the assay on NCI-H226; 0.01 µM (active) in the assay on SR; 0.0339 µM (active) with DU-145; 0.00502 µM (active) in the assay with HCT-116; 0.01 µM (active) with PC-3. The GI50 with U-251 was < 0.0254 µM (active); with K562, 0.01 µM (active); with MDA-MB-231 it was > 100 µM (inactive); in the assay with SNB-19, < 0.0434 µM (active); in the assay on NCI-H23, < 0.0226 µM (active); in the assay on MDA-MB-435 it was 0.01 µM (active). Further, the GI50 in the assay on NCI-H522 was 0.0897 µM (active); in the assay with Malme-3M, > 36.2 µM (inactive); in the assay on ACHN, 0.01 µM (active); in the assay with BT-549, > 100 µM (inactive); with HCT-15 it was 0.01 µM.

For `CCN(CC)c1nc(N(C)C)c2cc(OC)ccc2n1`, the GI50 in the assay on Hs-578T is 31.2 µM (inactive); with UACC-257 it was 24.7 µM (inactive); in the assay on NCI-H226, 21.9 µM (inactive); in the assay with SR, 21.9 µM (inactive); in the assay with DU-145, 42.2 µM (inactive); with COLO 205, 11.7 µM (inactive). Also, the GI50 in the assay on HCT-116 is 11.2 µM (inactive); with PC-3 it was 33.2 µM (inactive); in the assay with U-251, 27.5 µM (inactive); with K562, 20.8 µM (inactive); in the assay on MDA-MB-231 it was 35.5 µM (inactive); in the assay with SNB-19, 48.6 µM (inactive). In addition, the GI50 was 29.6 µM (inactive) with NCI-H23; 30.1 µM (inactive) in the assay with MDA-MB-435; 14.6 µM (inactive) with NCI-H522; 20.3 µM (inactive) in the assay on Malme-3M; 33 µM (inactive) with ACHN; 56.4 µM (inactive) in the assay on BT-549. Also, the GI50 in the assay on HCT-15 was 30.6 µM.

For `C/C=C\C(CC(=O)O)CN1CCC2=C(C1)C(S(=O)(=O)C(F)(F)F)c1ccccc12` (stereo not drawn), the GI50 with Hs-578T, with UACC-257, in the assay with SR, with DU-145, in the assay with COLO 205 and in the assay with HCT-116 was > 100 µM (inactive) throughout. The GI50 in the assay on PC-3, in the assay on U-251, in the assay on K562, in the assay with MDA-MB-231, in the assay on SNB-19 and in the assay with NCI-H23 was > 100 µM (inactive) throughout. Further, the GI50 is > 100 µM (inactive) in the assay on MDA-MB-435; > 100 µM (inactive) in the assay on NCI-H522; > 100 µM (inactive) in the assay with Malme-3M; > 100 µM (inactive) in the assay on ACHN; > 100 µM (inactive) with BT-549; greater than 100 µM in the assay on HCT-15.

For `CCOC(=O)Cn1nnc2cc(Nc3nc4ccccc4nc3C(=O)OCC)ccc21`, the GI50 with Hs-578T is 36.5 µM (inactive); in the assay on UACC-257, > 100 µM (inactive); in the assay with NCI-H226, > 100 µM (inactive); in the assay with SR, > 100 µM (inactive); in the assay on DU-145 it was > 100 µM (inactive); with COLO 205 it was > 100 µM (inactive). For the same compound, the GI50 was > 100 µM (inactive) in the assay on HCT-116; > 100 µM (inactive) with PC-3; 36 µM (inactive) in the assay on U-251; > 100 µM (inactive) in the assay on K562; 29 µM (inactive) in the assay with SNB-19; > 100 µM (inactive) with NCI-H23. For the same compound, the GI50 with MDA-MB-435, in the assay on NCI-H522, in the assay with T47D, with Malme-3M, in the assay on ACHN and in the assay on BT-549 was > 100 µM (inactive) each time. The compound also returned a GI50 in the assay with HCT-15 greater than 100 µM.

For the compound `ClCCCc1ccccc1C1=NCCc2ccccc21`, the GI50 in the assay on Hs-578T is 31.7 µM (inactive); with UACC-257, 43.1 µM (inactive); in the assay on NCI-H226, 55.1 µM (inactive); in the assay on DU-145 it was > 100 µM (inactive); in the assay with COLO 205, 22 µM (inactive); in the assay on HCT-116, 42.4 µM (inactive). For the same compound, the GI50 with PC-3 was 36.5 µM (inactive); with U-251 it was 25.8 µM (inactive); in the assay on K562 it was 13.7 µM (inactive); with MDA-MB-231 it was > 100 µM (inactive); in the assay with SNB-19, 36.8 µM (inactive); in the assay on NCI-H23, 15.8 µM (inactive). Moreover, the GI50 was 37.5 µM (inactive) in the assay on MDA-MB-435; 25.5 µM (inactive) in the assay on NCI-H522; 31.3 µM (inactive) with T47D; > 100 µM (inactive) in the assay on ACHN; 21 µM (inactive) in the assay with BT-549; greater than 100 µM with HCT-15.
